Test results reported in the NIST ThermoML archive (doi:10.1016/j.jct.2012.09.026).

Test: xn = mol fraction of the nth substance listed
Conditions: Liquid

CC(C)(C)O [2-methylpropan-2-ol] + O
mass density [kg/m3]
Conditions	278.15 K	288.15 K	298.15 K
101.3 kPa, Vibrating tube method, x1 = 0.0248	986.88	985.26	982.45
101.3 kPa, Vibrating tube method, x1 = 0.04241	981.87	978.77	974.54
101.3 kPa, Vibrating tube method, x1 = 0.05887	977	971.81	965.94
101.3 kPa, Vibrating tube method, x1 = 0.08929	963.35	956.03	949.01
101.3 kPa, Vibrating tube method, x1 = 0.1125	951.21	943.7	936.18
101.3 kPa, Vibrating tube method, x1 = 0.1566	929.91	922.09	914.18
101.3 kPa, Vibrating tube method, x1 = 0.208	910.57	902.66	894.55
101.3 kPa, Vibrating tube method, x1 = 0.3023	882.17	874	865.6
101.3 kPa, Vibrating tube method, x1 = 0.4045	860.22	851.78	843.11
101.3 kPa, Vibrating tube method, x1 = 0.4827	847.15	838.7	830.01
101.3 kPa, Vibrating tube method, x1 = 0.5344	839.61	830.98	822.05
101.3 kPa, Vibrating tube method, x1 = 0.6029	831.08	822.27	813.22
101.3 kPa, Vibrating tube method, x1 = 0.726	818.36	809.38	800.1
101.3 kPa, Vibrating tube method, x1 = 0.7999	812.56	803.46	794.07
101.3 kPa, Vibrating tube method, x1 = 0.8711	–	797.8	788.3
101.3 kPa, Vibrating tube method, x1 = 0.9183	–	794.66	785.07
101.3 kPa, Vibrating tube method, x1 = 0.9574	–	–	782.74
10000 kPa, Constant-volume piezometry, x1 = 0.0248	990.83	989.1	986.4
10000 kPa, Constant-volume piezometry, x1 = 0.04241	985.44	982.35	978.4
10000 kPa, Constant-volume piezometry, x1 = 0.05887	980.38	975.51	969.98
10000 kPa, Constant-volume piezometry, x1 = 0.08929	967.1	960.11	953.39
10000 kPa, Constant-volume piezometry, x1 = 0.1125	955.35	948.15	940.81
10000 kPa, Constant-volume piezometry, x1 = 0.1566	934.55	927.05	919.21
10000 kPa, Constant-volume piezometry, x1 = 0.208	915.88	908.09	899.99
10000 kPa, Constant-volume piezometry, x1 = 0.3023	888.19	880.07	871.71
10000 kPa, Constant-volume piezometry, x1 = 0.4045	866.8	858.48	849.93
10000 kPa, Constant-volume piezometry, x1 = 0.4827	854.18	845.78	837.26
10000 kPa, Constant-volume piezometry, x1 = 0.5344	–	838.32	829.58
10000 kPa, Constant-volume piezometry, x1 = 0.6029	–	–	821.11
25000 kPa, Constant-volume piezometry, x1 = 0.0248	996.63	994.94	992.33
25000 kPa, Constant-volume piezometry, x1 = 0.04241	990.81	987.9	984.21
25000 kPa, Constant-volume piezometry, x1 = 0.05887	985.66	981.16	975.95
25000 kPa, Constant-volume piezometry, x1 = 0.08929	972.88	966.27	959.85
25000 kPa, Constant-volume piezometry, x1 = 0.1125	961.59	954.74	947.61
25000 kPa, Constant-volume piezometry, x1 = 0.1566	941.34	934.17	926.51
25000 kPa, Constant-volume piezometry, x1 = 0.208	923.3	915.74	907.83
25000 kPa, Constant-volume piezometry, x1 = 0.3023	896.35	888.45	880.25
25000 kPa, Constant-volume piezometry, x1 = 0.4045	875.55	867.58	859.23
25000 kPa, Constant-volume piezometry, x1 = 0.4827	863.45	855.38	847.01
25000 kPa, Constant-volume piezometry, x1 = 0.5344	–	848.18	839.65
25000 kPa, Constant-volume piezometry, x1 = 0.6029	–	–	831.63
50000 kPa, Constant-volume piezometry, x1 = 0.0248	1005.84	1004.75	1002.03
50000 kPa, Constant-volume piezometry, x1 = 0.04241	999.56	997.38	993.67
50000 kPa, Constant-volume piezometry, x1 = 0.05887	994.6	990.56	985.61
50000 kPa, Constant-volume piezometry, x1 = 0.08929	982.34	976.26	970.06
50000 kPa, Constant-volume piezometry, x1 = 0.1125	971.7	965.1	958.37
50000 kPa, Constant-volume piezometry, x1 = 0.1566	952.1	945.1	937.98
50000 kPa, Constant-volume piezometry, x1 = 0.208	934.42	927.25	920
50000 kPa, Constant-volume piezometry, x1 = 0.3023	908.07	900.8	893.22
50000 kPa, Constant-volume piezometry, x1 = 0.4045	887.79	880.62	872.83
50000 kPa, Constant-volume piezometry, x1 = 0.4827	876.1	869.2	861.18
50000 kPa, Constant-volume piezometry, x1 = 0.5344	–	862.25	854.14
50000 kPa, Constant-volume piezometry, x1 = 0.6029	–	–	846.6
75000 kPa, Constant-volume piezometry, x1 = 0.0248	1014.43	1014.19	1011.23
75000 kPa, Constant-volume piezometry, x1 = 0.04241	1007.73	1006.42	1002.58
75000 kPa, Constant-volume piezometry, x1 = 0.05887	1002.96	999.48	994.71
75000 kPa, Constant-volume piezometry, x1 = 0.08929	991.23	985.6	979.52
75000 kPa, Constant-volume piezometry, x1 = 0.1125	981	974.66	968.17
75000 kPa, Constant-volume piezometry, x1 = 0.1566	961.89	955.07	948.39
75000 kPa, Constant-volume piezometry, x1 = 0.208	944.32	937.59	930.82
75000 kPa, Constant-volume piezometry, x1 = 0.3023	918.19	911.52	904.74
75000 kPa, Constant-volume piezometry, x1 = 0.4045	898.01	891.74	884.67
75000 kPa, Constant-volume piezometry, x1 = 0.4827	886.19	880.7	873.35
75000 kPa, Constant-volume piezometry, x1 = 0.5344	–	873.92	866.45
75000 kPa, Constant-volume piezometry, x1 = 0.6029	–	–	859.03
100000 kPa, Constant-volume piezometry, x1 = 0.0248	1022.28	1022.71	1019.69
100000 kPa, Constant-volume piezometry, x1 = 0.04241	1014.85	1014.15	–
100000 kPa, Constant-volume piezometry, x1 = 0.05887	1009.82	1007.36	–
100000 kPa, Constant-volume piezometry, x1 = 0.08929	999.16	993.91	–
100000 kPa, Constant-volume piezometry, x1 = 0.1125	988.91	983.36	–
100000 kPa, Constant-volume piezometry, x1 = 0.1566	970.36	964.36	–
100000 kPa, Constant-volume piezometry, x1 = 0.208	953.46	947.22	–
100000 kPa, Constant-volume piezometry, x1 = 0.3023	927.69	921.12	–
100000 kPa, Constant-volume piezometry, x1 = 0.4045	907.4	901.88	–
100000 kPa, Constant-volume piezometry, x1 = 0.4827	895.03	890.44	–
100000 kPa, Constant-volume piezometry, x1 = 0.5344	–	883.95	–
